The values that follow are results of earlier work, collected in US20040167197A1, “Compositions, combinations, and methods for treating cardiovascular conditions and other associated conditions” (priority 2003, published 2004).

For this data set, the system named is rat model of cardiac hypertrophy and dysfunction.

Turning to `COc1nccc(-c2c(-c3ccc(F)cc3)ncn2[C@H]2CC[C@H](O)CC2)n1` [trans-1-(4-hydroxycyclohexyl)-4-(4-fluorophenylmethoxypyridimidin-4-yl)imidazole], the hypertensive end-organ damage result was “protected against”, the “plasma tumor necrosis factor (TNF-α)” value was “reduced” and the survival result is listed as “improved”.
